Test results as given in patent US12116397B2, “IL-IR-I binding polypeptide” (Swedish Orphan Biovitrum AB (publ), priority 2017, dated 2024).

How the values were obtained:
[1] = system: Normal Human Dermal Fibroblasts (NHDF) cells; assay: Inhibition of IL-1β induced IL-6 production in NHDF cells; format: cell-based; conditions: 3.4 pM IL-1β
Experimental: The inhibitory effect of IL-1R-I binding fusion proteins on IL-1β induced IL-6 production in Normal Human Dermal Fibroblasts (NHDF) cells was monitored.
Cells were seeded three days prior to treatment with proteins. […] Harvested medium was diluted 41× before IL-6 content was analyzed using a human IL-6 ELISA kit (R&D Systems) according to manufacturer's recommendations. Data was analyzed using XLfit and IC50 values were calculated from concentration-response curves.

human whole blood = assay: Inhibition of IL-1β induced IL-6 production in whole blood; format: cell-based; conditions: 100 pM IL-1β
Experimental: The inhibitory effect of IL-1R-I binding fusion proteins on IL-1β induced IL-6 production in whole blood from individual donors was measured.
Blood from healthy donors was collected 1-3 hours prior to treatment with the IL-1R-I binding fusion proteins (SEQ ID NO:1648-1649). Proteins (IL-1R-I binding fusion proteins or anakinra) were diluted to starting concentration of 500 nM in serum free RPMI (ThermoFisher Scientific, RPMI 1640 Medium, GlutaMAX™ Supplement, Cat. No.: 61870010) and subsequently serially diluted 1:3 in a ten-step dilution series resulting in a concentration range of 500 nM to 25 pM. The IL-1R-I binding fusion polypetides or anakinra were tested in presence of a challenge dose of 100 pM IL-1β. The blood was incubated for 21-23 hours with proteins, followed by harvesting of plasma. Harvested plasma was diluted 2× and IL-6 content was analyzed by using a human IL-6 kit (V-PLEX Human IL-6 Kit Human interleukin-6, MSD) according to manufacturer's recommendations.
IL-6 concentrations (pg/ml) were calculated using a standard curve (provided by the kit) and data was analyzed using XLfit and IC50 values were calculated from the concentration-response curves.

## Kineret: recombinant form of endogenous IL-1Ra denoted anakinra (Kineret)
[1]
  IL-1β induced IL-6 release from NHDF cells: reduced in a concentration-dependent manner
Human whole blood
  IL-1β induced IL-6 release in human whole blood: reduced in a concentration-dependent manner
